Counter-ions that a name gives are not always drawn.
What was measured:
[1] = test system: maximal electroshock seizures; assay: Maximal electroshock seizure (MES) test, rat, p.o.; format: in vivo, rat (Sprague-Dawley); conditions: for Class in the MES Test: Table 7, titled MES Test, Rat; for responders at 30 mg/kg: several time points over a 4 hour period, read-out: Percent Protection at 30 mg/kg, in the MES test
Description: The hydrazones, hydrazines and semicarbazones derived from pyridyl ketones and the resulting orally effective anticonvulsant compositions of this invention are useful in the treatment of convulsive disorders. […] A series of hydrazones, hydrazines and semicarbazones derived from pyridyl ketones of this invention has been evaluated for anticonvulsant activity by the intraperitoneal (i.p.) and by the oral (p.o.) route using two standard seizure models in the mouse and in the rat, the maximal electroshock seizure (MES) test and the subcutaneous pentylenetetrazole (Metrazole) seizure threshold (scMet) test. […] In addition, the compounds are evaluated in a new model, the threshold tonic extension (TTE) model. […] Thus active compounds that may be missed in the MES and […] the mouse, i.p., can be detected in the TTE test. The Maximal Electroshock Seizure Test (MES): Maximal electroshock seizures are elicited with a 60 Hz alternating current of 50 mA intensity in mice and about 150 mA intensity in rats (5-7 times that necessary to elicit minimal electroshock seizures), delivered for 0.2 sec via corneal electrodes. A drop of 0.9% saline is instilled in the eye prior to application of the electrodes in order to […]. Abolition of the hind limb tonic extension component of the seizure is defined as protection and results are expressed as number of animals protected/number of animals tested. […] This species will be the subject of the complete anticonvulsant quantification test evaluation as described above, but after oral (gavage) administration of the candidate compound.

[2] = test system: maximal electroshock seizures; assay: Maximal electroshock seizure (MES) test, mouse, i.p.; format: in vivo, mouse (male Carworth Farms #1); conditions: for ASP Group Classification, MES Test: mouse, 30, 100 and 300 mg/kg
Description: The hydrazones, hydrazines and semicarbazones derived from pyridyl ketones and the resulting orally effective anticonvulsant compositions of this invention are useful in the treatment of convulsive disorders. […] A series of hydrazones, hydrazines and semicarbazones derived from pyridyl ketones of this invention has been evaluated for anticonvulsant activity by the intraperitoneal (i.p.) and by the oral (p.o.) route using two standard seizure models in the mouse and in the rat, the maximal electroshock seizure (MES) test and the subcutaneous pentylenetetrazole (Metrazole) seizure threshold (scMet) test. […] In addition, the compounds are evaluated in a new model, the threshold tonic extension (TTE) model. […] Thus active compounds that may be missed in the MES and […] the mouse, i.p., can be detected in the TTE test. Based on the screening results, the compounds are placed in one of three categories. […] Class II compounds show anticonvulsant activity at doses greater than 100 mg/kg or show activity at 100 mg/kg which is not reinforced by similar activity at 300 mg/kg. […] The Class I compounds are those which are most promising as anticonvulsants. […] In mice. i.p.: All compounds are emulsified in 0.5% methylcellulose. The solvent has been tested for anticonvulsant and toxic effects and found to introduce no significant bias into the testing of anticonvulsant activity. The compounds are administered intraperitoneally in a volume of 0.01 ml/gm to male Carworth Farms #1 mice weighing about 20 gm. All compounds are tested at least at three dose levels (30, 100 and 300 mg/kg) at 30 minutes and 4 hours after their administration. The Maximal Electroshock Seizure Test (MES): Maximal electroshock seizures are elicited with a 60 Hz alternating current of 50 mA intensity in mice and about 150 mA intensity in rats (5-7 times that necessary to elicit minimal electroshock seizures), delivered for 0.2 sec via corneal electrodes. A drop of 0.9% saline is instilled in the eye prior to application of the electrodes in order to […]. Abolition of the hind limb tonic extension component of the seizure is defined as protection and results are expressed as number of animals protected/number of animals tested. Anticonvulsant Quantification in Mice, i.p.: The ED50 values are determined in the MES, scMet and rotorod ataxia test.

TTE seizure = assay: Threshold tonic extension (TTE) test, mouse, i.p.; format: in vivo; conditions: mouse, 100 mg/kg
Description: The hydrazones, hydrazines and semicarbazones derived from pyridyl ketones and the resulting orally effective anticonvulsant compositions of this invention are useful in the treatment of convulsive disorders. […] A series of hydrazones, hydrazines and semicarbazones derived from pyridyl ketones of this invention has been evaluated for anticonvulsant activity by the intraperitoneal (i.p.) and by the oral (p.o.) route using two standard seizure models in the mouse and in the rat, the maximal electroshock seizure (MES) test and the subcutaneous pentylenetetrazole (Metrazole) seizure threshold (scMet) test. […] In addition, the compounds are evaluated in a new model, the threshold tonic extension (TTE) model. […] Thus active compounds that may be missed in the MES and scMet tests in the mouse, i.p., can be detected in the TTE test.
The Threshold Tonic Extension (TTE) Test: The TTE test (Piredda et al., 1985) is a clinically nonselective, electroconvulsive seizure model that identifies compounds that raise seizure threshold as well as those that prevent seizure spread. […] The test is similar to the MES screen but uses a lower level of electrical current. The lower current makes the TTE test more sensitive but less discriminate than the MES screen. This ability makes the model attractive because it allows us to identify compounds that may be missed by our standard identification screen.
Twenty mice are pretreated intraperitoneally with 100 mg/kg of the test substance. At several time intervals (1/4, 1/2, 1, 2, and 4 hours) post treatment with the test drug, four mice at each time point are challenged with 12.5 mA of electrical current for 0.2 seconds via corneal electrodes. This produces a TTE seizure in the animals (Woodbury and Davenport, 1952).
For each time interval results are expressed as a ratio of the number of animals protected over the number tested. […] The positives may represent compounds acting by novel mechanisms.

in vivo = assay: in vivo; parameters: species or system mouse (male Carworth Farms #1); conditions: mouse, ip
Procedure: Neurotoxicity is determined by the rotorod ataxia test in mice and by the positional sense test and gait and stance test in the rat.
Neurotoxicity is evaluated in mice by the rotorod ataxia test. The animal is placed on a wooden rod of 1 and 1/8" diameter rotating at 6 rpm. Normal mice can remain on a rod rotating at this speed indefinitely.
Anticonvulsant Quantification in Mice, i.p.: The ED50 values are determined in the MES, scMet and rotorod ataxia test.

**Q.** With CC(Nc1cccc(Cl)c1)c1cccnc1 (centres unmarked) [AAP 3-Pyridyl CH3 3-Cl, reference compound] as the molecule, how does the “Class in the MES Test” value [1] read?
**A.** II (show anticonvulsant activity at doses greater than 100 mg/kg or show activity at 100 mg/kg which is not reinforced by similar activity at 300 mg/kg)

**Q.** With CC(Nc1ccc(Cl)cc1)c1cccnc1 (centres unmarked) [AAP 3-Pyridyl CH3 4-Cl, reference compound] as the molecule, how does the “protection at 50 mg/kg, MES Test” value ([1]; rat, 50 mg/kg, Table 7) read?
**A.** 0-75%

**Q.** Which ED50 ([1]; po, rat, Table 7, read-out: Anticonvulsant Efficacy (ED50, mg/kg) in the MES Test) does the source give for CC(Nc1ccc(Cl)c(Cl)c1)c1ccncc1 (centres unmarked) [AAP 4-Pyridyl CH3 3,4-diCl, reference compound] here?
**A.** 29.7 mg/kg

**Q.** With Clc1ccc(NC(c2ccccc2)c2ccncc2)cc1 (centres unmarked) [AAP 4-Pyridyl Ph 4-Cl, reference compound] as the molecule, how does the “Class in the MES Test” value [1] read?
**A.** III (Those failing to demonstrate anticonvulsant activity at doses up to 300 mg/kg are considered inactive)

**Q.** What does the source list for CC(=NNc1ccc(Cl)cc1)c1ccncc1 [Compound 2, Methyl 4-pyridyl ketone 4-chlorophenyl hydrazone]?
**A.** ASP Group Classification, MES Test [2]: I (They demonstrate anticonvulsant activity in either the MES test or the scMet test, or both at doses of 100 mg/kg or 30 mg/kg without signs of neurological deficit and thus have an estimated protective index of greater than 1); responders at 30 mg/kg ([1]; po, rat, 30 mg/kg): 50 to 75%

**Q.** Which “ASP Group Classification, MES Test” value [2] does the source give for CC(=NNc1cccc(Cl)c1)c1cccnc1 [Compound 6, Methyl 3-pyridyl ketone 3-chlorophenylhydrazone] here?
**A.** I (They demonstrate anticonvulsant activity in either the MES test or the scMet test, or both at doses of 100 mg/kg or 30 mg/kg without signs of neurological deficit and thus have an estimated protective index of greater than 1)

**Q.** What about the “Class in the MES Test” value [1] of the same molecule?
**A.** I (They demonstrate anticonvulsant activity in either the MES test or the scMet test, or both at doses of 100 mg/kg or 30 mg/kg without signs of neurological deficit and thus have an estimated protective index of greater than 1)

**Q.** Which “ASP Group Classification, MES Test” value [2] does the source give for CCC(=NNc1ccc(Cl)c(Cl)c1)c1ccncc1 [Compound 7, Ethyl 4-pyridyl ketone 3,4-dichlorophenylhydrazone] here?
**A.** III (Those failing to demonstrate anticonvulsant activity at doses up to 300 mg/kg are considered inactive)

**Q.** And the “ASP Group Classification, TTE Test” value (TTE seizure)?
**A.** I (They demonstrate anticonvulsant activity in either the MES test or the scMet test, or both at doses of 100 mg/kg or 30 mg/kg without signs of neurological deficit and thus have an estimated protective index of greater than 1)

**Q.** And the “TTE Test (Percent Protection)” value (TTE seizure)?
**A.** 25%

**Q.** For CCC(=NNc1ccc(Cl)cc1)c1ccncc1 [Compound 8, Ethyl 4-pyridyl ketone 4-chlorophenylhydrazone], which “ASP Group Classification, MES Test” value [2] is on record?
**A.** I (They demonstrate anticonvulsant activity in either the MES test or the scMet test, or both at doses of 100 mg/kg or 30 mg/kg without signs of neurological deficit and thus have an estimated protective index of greater than 1)

**Q.** What does the source list for Clc1ccc(NN=C(c2ccccc2)c2ccncc2)cc1Cl [Compound 9, Phenyl 4-pyridyl ketone 3,4-dichlorophenylhydrazone]?
**A.** ASP Group Classification, MES Test [2]: III (Those failing to demonstrate anticonvulsant activity at doses up to 300 mg/kg are considered inactive); ASP Group Classification, TTE Test (TTE seizure): I (They demonstrate anticonvulsant activity in either the MES test or the scMet test, or both at doses of 100 mg/kg or 30 mg/kg without signs of neurological deficit and thus have an estimated protective index of greater than 1); TTE Test (Percent Protection) (TTE seizure): 25%

**Q.** Which results are given for Clc1ccc(NN=C(c2ccccc2)c2ccncc2)cc1 [Compound 10, Phenyl 4-pyridyl ketone 4-chlorophenylhydrazone]?
**A.** ASP Group Classification, MES Test [2]: I (They demonstrate anticonvulsant activity in either the MES test or the scMet test, or both at doses of 100 mg/kg or 30 mg/kg without signs of neurological deficit and thus have an estimated protective index of greater than 1); Class in the MES Test [1]: I (They demonstrate anticonvulsant activity in either the MES test or the scMet test, or both at doses of 100 mg/kg or 30 mg/kg without signs of neurological deficit and thus have an estimated protective index of greater than 1)

**Q.** What does the source list for Clc1cccc(NN=C(c2ccccc2)c2ccncc2)c1 [Compound 11, Phenyl 4-pyridyl ketone 3-chlorophenylhydrazone]?
**A.** ASP Group Classification, MES Test [2]: III (Those failing to demonstrate anticonvulsant activity at doses up to 300 mg/kg are considered inactive); ASP Group Classification, TTE Test (TTE seizure): I (They demonstrate anticonvulsant activity in either the MES test or the scMet test, or both at doses of 100 mg/kg or 30 mg/kg without signs of neurological deficit and thus have an estimated protective index of greater than 1)

**Q.** Which results are given for CC(NNc1ccc(Cl)c(Cl)c1)c1cccnc1 (centres unmarked) [Compound 12, 1-(3,4-dichlorophenyl)-2-[1-(3-pyridyl)]ethylhydrazine dihydrochloride]?
**A.** ASP Group Classification, MES Test [2]: I (They demonstrate anticonvulsant activity in either the MES test or the scMet test, or both at doses of 100 mg/kg or 30 mg/kg without signs of neurological deficit and thus have an estimated protective index of greater than 1); responders at 30 mg/kg ([1]; po, rat, 30 mg/kg): 25 to 75%

**Q.** For CC(=NNC(N)=O)c1ccncc1 [Compound 13, Methyl 4-pyridyl ketone semicarbazone], which “ASP Group Classification, MES Test” value [2] is on record?
**A.** I (They demonstrate anticonvulsant activity in either the MES test or the scMet test, or both at doses of 100 mg/kg or 30 mg/kg without signs of neurological deficit and thus have an estimated protective index of greater than 1)

**Q.** For CC(=NNC(N)=O)c1cccnc1 [Compound 14, Methyl 3-pyridyl ketone semicarbazone], which “ASP Group Classification, MES Test” value [2] is on record?
**A.** II (show anticonvulsant activity at doses greater than 100 mg/kg or show activity at 100 mg/kg which is not reinforced by similar activity at 300 mg/kg)

**Q.** Which results are given for NC(=O)NN=C(c1ccccc1)c1cccnc1 [Compound 16, Phenyl 3-pyridyl ketone semicarbazone]?
**A.** ED50 ([2]; Mus musculus, ip, mice, Table 5): 21.8 mg/kg; P.I., TD50/ED50, MES ([2]; mice, Table 5): 3.87; ASP Group Classification, MES Test [2]: I (They demonstrate anticonvulsant activity in either the MES test or the scMet test, or both at doses of 100 mg/kg or 30 mg/kg without signs of neurological deficit and thus have an estimated protective index of greater than 1); responders at 30 mg/kg ([1]; po, rat, 30 mg/kg): 75 to 100%; protection at 30 mg/kg, MES Test ([1]; rat, 30 mg/kg, Table 7): 75-100%; TD50 (in vivo): 84.6 mg/kg

From patent publication US5942527A, “Hydrazones, hydrazines, semicarbazones and thiosemicarbazones derived from pyridyl ketones as anticonvulsant drugs and excitatory amino acid antagonists” (K & K Biosciences, Inc., priority 1997, dated 1999)
